These are literature values, as cited in patent US20130046087A1, “Substituted Cyclodextrin Derivatives Useful As Intermediates For Producing Biologically Active Materials” (Arcarios BV, priority 2010, published 2013).

This series has as its system rabbit model of experimental osteoarthritis. Particulars: subcutaneously administered, per Osteoarthritis and Cartilage (2008) 16:986-993.

Turning to β-cyclodextrin polysulfate, the “effect on cartilage lesions and osteocyte formation in the affected joints” value was “reduced the cartilage lesions and osteocyte formation”.
